Patent publication US20060229233A1, “Compositions and methods for treating neurological disorders” (ID Biomedical Corporation, priority 2004, published 2006)
Where two headings read alike, the source gives them in different places. Marks after values point to notes of the source that are not given here.

What was measured:
Aβ = assay: Anti-Aβ antibody level (IgG, OD) in immunized J20 APP transgenic mice; format: in vivo
Procedure: Antibody levels were measured against Aβ in animals immunized with MOG or PLP to determine if there was cross reactivity with Aβ and Aβ antibody titers as compared to those from animals immunized with Aβ. […] To definitively establish that antibodies were not playing a role, 16-month-old J20 mice bred to μMT B-cell deficient mice were immunized with MOG 35-55 in CFA followed by administration of Pertussis toxin.

[1] = tested on: hippocampus of APP tg mice; assay: Immunohistochemistry of hippocampus in immunized animals; format: in vivo; settings: for activated microglia (CD11b) in hippocampus: immunization in CFA, APP tg mice
Procedure: Immunohistology. The staining was performed utilizing the following markers: T-cells (CD3; BD Biosciences:553057), microglia/macrophages (CD11b; Serotec:MCA74G), (C-MFR; Cymbus Biotech:21080096), IFN-γ (Pharmingen: 559065), IL-10 (Pharmingen:559063) and TGF-β (RD:AB-20-PB). Anti-amyloid antibodies (R1282) were a gift of Dennis Seloke. Brain sections were further subject to Haematoxylin staining. Sections were evaluated in a blinded manner, and controls included use of isotype-matched mAbs as previously described. For each treatment the quantification was done from the hippocampal region of three different brain sections (the same region, Bregma −1.34, that were used for ThS staining). The results are expressed as the mean of the labeled cells for each marker.

Aβ fibrils = format: in vivo, mice; settings: for % Area of thioflavin positive Aβ plaques (hippocampus): subcutaneous immunization in CFA + pertussis toxin
Procedure: (§1) Amyloid quantification. To quantify amyloid burden, the right hemisphere was extracted in 5.0 M guanidinium-chloride (pH 8) for 3 hours at room temperature. Dilutions were used to measure levels of insoluble (amyloid-associated) […] and Aβ42 by sandwich enzyme-linked immunosorbent assays (ELISA). To measure Aβ fibrils, the left hemisphere was fixed in 4% Brain O/N followed by 4.5% sucrose for 4 hours then 20% Sucrose for O/N at 4° C. Brains were frozen in the presence of OCT paraformaldehyde, cut to 14-μm longitudinal sections used for immunohistological staining and amyloid fibril quantification. Well-defined hippocampal regions (Bregma −1.34), were selected for quantification of the amount of amyloid fibril in plaques using thioflavin-S staining. Images (magnification ×20) from these sections were collected from a 3CCD color video camera and analyzed with appropriate software (NIH; Imaging Research). The amount of amyloid fibril was expressed as a percentage per mm^2 hippocampal region as measured by the software.

J20 APP transgenic mice = format: in vivo; settings: for occurrence of EAE: immunization in CFA + pertussis toxin
Procedure: Induction and clinical evaluation of EAE in APP+ mice. (B6D2)F1 or (B6XSJL)F1 APP+ (WT or B-cell deficient μMT) and non-tg littermates were immunized in the hind footpads with 100 μg MOG(35-55), PLP 139-151 or 100 μg β-amyloid peptide (1-40) in CFA. Immediately thereafter and again 48 hours later mice received an i.p. injection containing 150 ng of pertussis toxin in 0.2 ml PBS. Animals were monitored for symptoms of EAE beginning 7 days after immunization and scored as follows: 0, no disease; 1, tail paralysis; 2, hind limb weakness; 3, hind limb paralysis; 4, hind limb plus forelimb paralysis; and 5, moribund.
Nasal vaccination. Glatiramer acetate: 25 μg was given on days 1, 2, 4 and 5 the first week followed by a weekly boost for six weeks. IVX-908: 1 μg/mouse was given on days 1 and 5 the first week followed by a weekly boost for six weeks. BSA+IVX-908: 25 μg of BSA plus 1 ug IVX-908 were given on days 1 and 5 the first week, and 25 μg of BSA alone was given on days 2 and 4, followed by six weekly boosts of the combination of BSA+IVX-908. GA+IVX-908: 25 μg of GA plus 1 μg IVX-908 were given on days 1 and 5 the first week, and 25 μg of GA alone was given on days 2 and 4, followed by six weekly boosts of the combination of GA+IVX-908.

Aβ40 and Aβ42 [2] = assay: Total brain Aβ by sandwich ELISA, J20 APP transgenic mice; format: in vivo; settings: for Total brain Aβ: subcutaneous immunization in CFA + pertussis toxin
Procedure: FIG. 1: Effect of subcutaneous immunization on total Aβ levels in the brain. To quantify amyloid burden, the right hemisphere was extracted in 5.0 M guanidinium-chloride (pH 8) for 3 hours at room temperature. Dilutions were used to measure levels of Aβ40 and Aβ42 by sandwich enzyme-linked immunosorbent assays (ELISA).
as §1, with “To measure Aβ fibrils, the left hemisphere was fixed in 4% Brain O/N followed by 4.5% sucrose for 4 hours then 20% Sucrose for O/N at 4° C.” left out, “Well-defined hippocampal regions (Bregma −1.34), were selected for quantification of the amount of amyloid fibril in plaques using thioflavin-S staining.” left out

Aβ40 and Aβ42 [3] = assay: as above; format: in vivo
APP non-transgenic mice = assay: Microglial activation in APP non-transgenic mice; format: in vivo; settings: parenteral with CFA/PT or nasal
microglial phagocytosis = settings: Cha, A. et al. (2001) GLIA 33(1):87-95; cited from earlier work
[4] = level of OD at titer of 1:500 IgG, subcutaneous immunization in CFA + pertussis toxin, J20 APP transgenic mice
[5] = Subcutaneous (CFA/P.T.), B-deficient mice
[6] = immunization in CFA + pertussis toxin, APP transgenic mice
[7] = μMT B-cell deficient J20 APP+ mice
[8] = μMT B-cell deficient APP+ mice, CFA + Pertussis toxin
[9] = subcutaneous (footpad) immunization in CFA + pertussis toxin, J20 APP transgenic mice, scale 0-5
[10] = nasal immunization, J20 APP transgenic mice

| Substance | Anti-Aβ Antibody (Aβ; [4]) [OD] | CD3, number of cells per hippocampal region ([1]; Subcutaneous (CFA/P.T.)) | CD11b, number of cells per hippocampal region ([1]; Subcutaneous (CFA/P.T.)) | IFN-γ, number of cells per hippocampal region ([1]; Subcutaneous (CFA/P.T.)) | IL-10, number of cells per hippocampal region ([1]; Subcutaneous (CFA/P.T.)) | M-CSFR, number of cells per hippocampal region ([1]; Subcutaneous (CFA/P.T.)) | TGF-β, number of cells per hippocampal region ([1]; Subcutaneous (CFA/P.T.)) | activated microglia (CD11b) in hippocampus [1] [cells/hippocampus region] | reduction of staining for Aβ fibril in the hippocampus (thioflavin S) vs. controls (Aβ fibrils; [6]) [%] | % Area of thioflavin positive Aβ plaques (hippocampus) (Aβ fibrils; J20 APP transgenic mice) | EAE score (J20 APP transgenic mice; [9]) | reduction of total brain Aβ (ELISA) / total amyloid load vs. control (Aβ40 and Aβ42 [2]; [6]) [%] | Total brain Aβ (Aβ40 and Aβ42 [2]; J20 APP transgenic mice) | occurrence of EAE (J20 APP transgenic mice) | further results |
| --- | --- | --- | --- | --- | --- | --- | --- | --- | --- | --- | --- | --- | --- | --- | --- |
| myelin oligodendrocyte glycoprotein (MOG) peptide (amino acids 35-55) (MEVGWYRSPFSRVVHLYRNGK; UniProt Q61885 63-83, looked up, fragment) | 0 | 142 ± 19 ^iv cells per hippocampal region | 349 ± 34.3 ^iv cells per hippocampal region | 109 ± 7 ^iv cells per hippocampal region | 21 ± 9 ^ii cells per hippocampal region | 79 ± 5 ^i cells per hippocampal region | 20 ± 5 ^iii cells per hippocampal region | 349±34.3 | 92 | 0.22 ± 0.1 ^b % | 2.5 ± 0.8 | 94 | 8.4 ± 2.1 ^b ng/ml |  | anti-Aβ antibodies (Aβ; MOG immunization): not detected; Anti-Aβ Antibody (Aβ; level of OD at titer of 1:500 IgG, subcutaneous, μMT B-cell deficient J20 APP+ mice): 0 OD; CD3, number of cells per hippocampal region [1, 5]: 195 ± 12 ^iv cells per hippocampal region; CD11b, number of cells per hippocampal region [1, 5]: 462 ± 23 ^iv cells per hippocampal region; IFN-γ, number of cells per hippocampal region [1, 5]: 119 ± 18 ^iv cells per hippocampal region; IL-10, number of cells per hippocampal region [1, 5]: 25 ± 5 ^i cells per hippocampal region; M-CSFR, number of cells per hippocampal region [1, 5]: 77 ± 6 ^i cells per hippocampal region; TGF-β, number of cells per hippocampal region [1, 5]: 22 ± 8 ^ii cells per hippocampal region; reduction of staining for Aβ fibril in the hippocampus (thioflavin S) compared to mice immunized with Aβ 1-40 (Aβ fibrils; [6]): 73%; % Area of thioflavin positive Aβ plaques (hippocampus) (Aβ fibrils; [7]): 0.27 ± 0.04 ^b %; reduction in amyloid compared to control by ThS staining (Aβ fibrils; [8]): 90%; EAE score (J20 APP transgenic mice; subcutaneous immunization in CFA + pertussis toxin, μMT B-cell deficient J20 APP+ mice): 2.7 ± 0.4; reduction of total brain Aβ (ELISA) compared to Aβ 1-40 immunized mice (Aβ40 and Aβ42 [2]; [6]): 86%; Total brain Aβ (Aβ40 and Aβ42 [2]; [7]): 11.4 ± 2.7 ^b ng/ml; reduction in amyloid compared to control by ELISA for total brain amyloid (Aβ40 and Aβ42 [2]; [8]): 90% |
| human β-amyloid peptide (Aβ amino acids 1-40) | 0.75 | 10 ± 2 cells per hippocampal region | 106 ± 27 cells per hippocampal region | 9 ± 2 cells per hippocampal region | 44 ± 5 cells per hippocampal region | 34 ± 11 cells per hippocampal region | 41 ± 5 cells per hippocampal region | 106±27 |  | 0.83 ± 0.3 ^a % | 0 |  | 60.8 ± 16 ^a ng/ml | no EAE was observed |  |
| glatiramer acetate [GA] | 0 | 61 ± 12 ^i cells per hippocampal region | 227 ± 61 ^i cells per hippocampal region | 85 ± 11 ^iv cells per hippocampal region | 59 ± 7 cells per hippocampal region | 57 ± 8 cells per hippocampal region | 31 ± 7 cells per hippocampal region |  | 92 | 0.26 ± 0.1 ^d % | 0 | 70 | 39.1 ± 12.8 ^c ng/ml | no clinical EAE | effect on total Aβ levels in the brain (Aβ40 and Aβ42 [3]; nasal administration): slight reduction; Total brain Aβ (Aβ40 and Aβ42 [3]; [10]): 97.6 ± 15.5 ng/mL; Anti-Aβ Antibody (Aβ; level of OD 450 at titer of 1:50 IgG, nasal immunization, J20 APP transgenic mice): 0 OD 450; CD3, number of cells per hippocampal region ([1]; NASAL): 35 ± 19 cells per hippocampal region; CD11b, number of cells per hippocampal region ([1]; NASAL): 136 ± 12 cells per hippocampal region; IFN-γ, number of cells per hippocampal region ([1]; NASAL): 53 ± 3 ^i cells per hippocampal region; IL-10, number of cells per hippocampal region ([1]; NASAL): 75 ± 7 cells per hippocampal region; M-CSFR, number of cells per hippocampal region ([1]; NASAL): 30 ± 9 cells per hippocampal region; TGF-β, number of cells per hippocampal region ([1]; NASAL): 77 ± 10 cells per hippocampal region; microglial activation in APP non-transgenic mice (APP non-transgenic mice): No microglial activation; effect on Aβ fibrils / fibrillar Aβ staining (Aβ fibrils; mouse, in vivo): did not affect Aβ fibrils; % Area of thioflavin S positive Aβ plaques (hippocampus) (Aβ fibrils; [10]): 2.06 ± 0.8%; EAE score (J20 APP transgenic mice; [10]): 0 |
| bovine serum albumin [BSA/CFA] |  |  |  |  |  |  |  | 76±17 |  |  |  |  |  | no EAE was observed |  |
| INF-gamma: Th1-type cytokine INF-gamma |  |  |  |  |  |  |  |  |  |  |  |  |  |  | augmentation of microglial phagocytosis (microglial phagocytosis): 75 % above untreated |
